Data from patent US20110212954A1, “ALPHA-LIPOIC ACID DERIVATIVES AND THEIR USE IN DRUG PREPARATION” (priority 2008, published 2011).

Assays:
[1] = Pharmacokinetic study in rats after oral administration of a single dose, HPLC-MS of plasma; format: in vivo; details: rat
Method: The bioavailability of some compounds synthesized (Examples 1a, 2, 2a, 3, 3a, 10, 15a, 16a and 24) was studied in rats after oral administration of a single dose (48.5 μmol/kg) and compared with the reference (R)- or (RS)-α-LA.
Each treatment was carried out on groups of 6 male rats (Sprague-Dawley SD rat) per compound. At regular times, blood withdrawals were carried out for the measurement by HPLC-MS of the concentration of plasmatic α-LA (FIGS. 5, 7, 9) and of the residual compound administered (FIGS. 6, 8).

HepG2 cells [2] = experiment: Variation in NADH levels (total NADH/NAD ratio), spectrophotometric kit; format: cell-based, human; details: 5 μM, 72 hours
Description: (§1) Although it is known that under hyperglycemic conditions α-LA induces AMPK activation in hepatic cells, the molecular mechanisms responsible for this biochemical process are not yet known. As envisaged in the description, the inventors of the present invention have advanced the hypothesis that AMPK activation by α-LA is the result of changes in the amount of NADH and NADHP present in cells, due to the interference of α-LA and/or its analogous derivatives in the oxidation-reduction processes. To verify this hypothesis, use was made of commercial kits (by Valter Occhiena) able to analyze the variations in the cellular amounts of NAD(P)H relative to total NAD(P), in the presence of increasing concentrations of the compounds under analysis (total NAD=NADH+NAD^+; total NADP=NADPH+NADP^+).

HepG2 cells [3] = experiment: Variation in NADPH levels (total NADPH/NADP ratio), spectrophotometric kit; format: cell-based, human; details: HepG2 cells, 5, 10, 100 and 500 μM, 72 hours
Description: as §1

[4] = system: protein pool extracted from murine liver; experiment: In vitro enzyme hydrolysis assay, thin-layer chromatography detection; format: in vitro ADME, mouse; details: 1 mg murine liver protein extract, 50 μg compound, 25° C.
Method: In view of what found from the results of Example 29, an in vitro enzyme hydrolysis assay was carried out with the aim of further clarifying which of the synthesized derivatives behaved as alpha-lipoic acid precursors, i.e. as prodrugs able to release alpha-lipoic acid by hydrolysis.
A protein pool extracted from murine liver, containing enzymes able to promote hydrolysis of the compounds of the invention, was used to reintroduce in vitro the hydrolytic activity previously described in the pharmacokinetic studies.
Methodology • The liver of a wild-type mouse was removed; excess blood was removed by washing in phosphate buffer saline (PBS); • Said liver was transferred into a homogenizer with a sufficient amount of lysis buffer (50 mM Tris HCl pH 7.5-8.0; 150 mM NaCl; 5 mM EGTA pH 7.5-8.0; 50 mM NaF pH 8.0; 10% (v/v) glycerol; 1.5 mM MgCl2, 1% Triton X-100) enriched with protease and phosphatase inhibitors (Protease Inhibitor Cocktail; Sigma-Aldrich). 15-20 impacts were applied by the pestle in order to obtain a homogeneous solution; • The entire mixture was left under agitation at +4° C. for 1 hour; after centrifugation at 14000 rpm, the supernatant containing the extracted proteins was recovered; • The amount of extracted protein was determined using the Bradford assay; • The enzymatic hydrolysis reaction was carried out: 1 mg of protein extract for hydrolysing 50 μg of synthesized compound (dissolved in DMSO); 1, 3 or 24 hours at 25° C. under agitation; • The digestion product(s) was/were detected using thin-layer chromatography: mobile phase (60:40:1 of ethyl acetate; n-hexane; acetic acid); silica plate (Sigma-Aldrich); phosphomolybdic reagent; • The digestion products were analyzed and compared with (R)-α-LA (Sigma-Aldrich), and with the non-hydrolysed compound of the invention.
It was, therefore, possible to detect (R)-alpha-lipoic acid as the hydrolysis product and to differentiate it from the enantiomers of the invention.

Row | enzymatic hydrolysis after 24 h (FIG. 3) [4] | amount of (R)-alpha-lipoic acid released after 24 h (FIG. 3) [4] | Structure (SMILES) | further results
1 |  |  | O=C(CCCCC1CCSS1)NCCCN1CCOCC1 (racemic) [Example 3a, 5-[1,2]dithiolan-3-yl-pentanoic acid(3-morpholin-4-yl-propyl)-amide] | released alpha-lipoic acid and compound itself in plasma, any withdrawal time ([1]; single dose 48.5 μmol/kg): neither released alpha-lipoic acid nor the compound itself was detected; NADH levels relative to control at 5 μM (FIG. 10) (HepG2 cells [2]): lower NADH levels than the control; effect on NADPH levels (FIG. 11) (HepG2 cells [3]): influenced NADPH levels, in a dose dependent manner
2 |  |  | CC(=O)NCCNC(=O)CCCCC1CCSS1 (racemic) [Example 10a, 5-[1,2]dithiolan-3-yl-pentanoic acid(2-acetylamino-ethyl)-amide] | melting point: 144.6 to 145.8 °C
3 | remained essentially unaltered |  | O=C(CCCC[C@@H]1CCSS1)N1CCOCC1 [Example 1, (R)-1-morpholin-4-yl-5-[1,2]dithiolan-3-yl-pentan-1-one] | 
4 | not completely hydrolysed | very considerable amount | CCCCNC(=O)CCCC[C@@H]1CCSS1 [Example 2, (R)-5-[1,2]dithiolan-3-yl-pentanoic acid butylamide] | concentration of alpha-lipoic acid in plasma after 30 minutes from administration (FIG. 9) ([1]; shorter treatment intervals (5-30 minutes)): significant concentration; hydrolysis profile in vivo compared with the corresponding racemic compound (FIG. 7 vs FIG. 5) ([1]; single dose 48.5 μmol/kg): more linear hydrolysis profile
5 |  |  | O=C(CCCC[C@@H]1CCSS1)NCCCN1CCOCC1 [Example 3, (R)-5-[1,2]dithiolan-3-yl-pentanoic acid(3-morpholin-4-yl-propyl)-amide] | released alpha-lipoic acid and compound itself in plasma, any withdrawal time ([1]; single dose 48.5 μmol/kg): neither released alpha-lipoic acid nor the compound itself was detected
6 | remained essentially unaltered |  | CCCC(C)NC(=O)CCCC[C@@H]1CCSS1 (stereo partly drawn) [Example 5, (R)-5-[1,2]dithiolan-3-yl-pentanoic acid(1-methyl-butyl)-amide] | 
7 | partial hydrolization | reduced release | CNC(=O)CCCC[C@@H]1CCSS1 [Example 6, (R)-5-[1,2]dithiolan-3-yl-pentanoic acid methylamide] | 
8 | partial hydrolization | reduced release | CCCNC(=O)CCCC[C@@H]1CCSS1 [Example 7, (R)-5-[1,2]dithiolan-3-yl-pentanoic acid propylamide] | 
9 | partial hydrolization | reduced release | CC(C)NC(=O)CCCC[C@@H]1CCSS1 [Example 8, (R)-5-[1,2]dithiolan-3-yl-pentanoic acid isopropylamide] | effect on NADPH levels (FIG. 11) (HepG2 cells [3]): influenced NADPH levels, in a dose dependent manner
10 |  |  | CC(=O)NCCNC(=O)CCCC[C@@H]1CCSS1 [Example 10, (R)-5-[1,2]dithiolan-3-yl-pentanoic acid(2-acetylamino-ethyl)-amide] | melting point: 144.6 to 145.8 °C
11 | partial hydrolization | reduced release | O=C(CCCC[C@@H]1CCSS1)NCCc1ccccc1 [Example 11, (R)-5-[1,2]dithiolan-3-yl-pentanoic acid phenethyl-amide] | 
12 | partial hydrolization | reduced release | O=C(CCCC[C@@H]1CCSS1)NCCCc1ccccc1 [Example 12, (R)-5-[1,2]dithiolan-3-yl-pentanoic acid(3-phenyl-propyl)-amide] | 
13 | partial hydrolization | reduced release | O=C(CCCC[C@@H]1CCSS1)NCCCCc1ccccc1 [Example 13, (R)-5-[1,2]dithiolan-3-yl-pentanoic acid(4-phenyl-butyl)-amide] | 
14 | partial hydrolization | reduced release | O=C(CCCC[C@@H]1CCSS1)NC1CCCC1 [Example 14, (R)-5-[1,2]dithiolan-3-yl-pentanoic acid cyclopentylamide] | 
15 |  |  | CC(C)(C)C(=O)OCOC(=O)CCCC[C@@H]1CCSS1 [Example 15, (R)-5-[1,2]dithiolan-3-yl-pentanoic acid 2,2-dimethyl-propionyloxymethyl ester] | enzymatic hydrolysis after 1 h (FIG. 2) [4]: completely hydrolyzed
16 |  |  | CCCC(=O)OCOC(=O)CCCC[C@@H]1CCSS1 [Example 16, (R)-5-[1,2]dithiolan-3-yl-pentanoic acid butyryloxymethyl ester] | enzymatic hydrolysis after 1 h (FIG. 2) [4]: completely hydrolyzed
17 |  |  | CC(=O)OC(C)OC(=O)CCCC[C@@H]1CCSS1 (stereo partly drawn) [Example 17, (R)-5-[1,2]dithiolan-3-yl-pentanoic acid 1-acetoxy-ethyl ester] | enzymatic hydrolysis after 1 h (FIG. 2) [4]: partial hydrolization; enzymatic hydrolysis after 3 h (FIG. 2) [4]: completely hydrolyzed
18 |  |  | CC(OC(=O)CCCC[C@@H]1CCSS1)OC(=O)C(C)(C)C (stereo partly drawn) [Example 18, (R)-5-[1,2]dithiolan-3-yl-pentanoic acid 2,2-dimethyl-propionyloxyethyl ester] | enzymatic hydrolysis after 1 h (FIG. 2) [4]: partial hydrolization; enzymatic hydrolysis after 3 h (FIG. 2) [4]: completely hydrolyzed
19 | partial hydrolization | reduced release | CCCCCNC(=O)CCCC[C@@H]1CCSS1 [Example 19, (R)-5-[1,2]dithiolan-3-yl-pentanoic acid n-pentylamide] | 
20 | remained essentially unaltered |  | CCCCCCCNC(=O)CCCC[C@@H]1CCSS1 [Example 20, (R)-5-[1,2]dithiolan-3-yl-pentanoic acid n-heptylamide] | 
21 | remained essentially unaltered |  | CCC(CC)NC(=O)CCCC[C@@H]1CCSS1 [Example 21, (R)-5-[1,2]dithiolan-3-yl-pentanoic acid pentan-3-ylamide] | 
22 | not completely hydrolysed | very considerable amount | O=C(CCCC[C@@H]1CCSS1)NCc1ccccc1 [Example 22, (R)-5-[1,2]dithiolan-3-yl-pentanoic acid N-benzylamide] | 
23 | not completely hydrolysed | very considerable amount | COc1ccc(CNC(=O)CCCC[C@@H]2CCSS2)cc1O [Example 23, (R)-5-[1,2]dithiolan-3-yl-pentanoic acid N-(3-hydroxy-4methoxybenzyl)amide] | 
24 | not completely hydrolysed | very considerable amount | O=C(CCCC[C@@H]1CCSS1)NCC1CC1 [Example 24, (R)-5-[1,2]dithiolan-3-yl-pentanoic acid N-(cyclopropylmethyl)amide] | 
25 | not completely hydrolysed | very considerable amount | C=CCCNC(=O)CCCC[C@@H]1CCSS1 [Example 25, (R)-5-[1,2]dithiolan-3-yl-pentanoic acid N-(buten-3-yl)amide] | 
26 | remained essentially unaltered |  | CC1CCN(C(=O)CCCC[C@@H]2CCSS2)CC1 [Example 28, (R)-5-[1,2]dithiolan-3-yl-pentanoic acid 1-(4-methylpiperidin-1-yl)amide] | 

Row | Structure (SMILES) | enzymatic hydrolysis after 24 h (FIG. 3) [4] | amount of (R)-alpha-lipoic acid released after 24 h (FIG. 3) [4] | further results
27 | COc1ccc(CNC(=O)CCCC[C@@H]2CCSS2)cc1OC(C)=O [Example 27, (R)-5-[1,2]dithiolan-3-yl-pentanoic acid N-(3-acetoxy-4methoxybenzyl)amide] | not completely hydrolysed | very considerable amount | 
